Measurements: patent publication US12540165B2, “HSP fusion protein with anti-chemorepellant agent for treatment of cancer” (The General Hospital Corporation, priority 2016, dated 2026)
Where two headings read alike, the source gives them in different places.

Columns and labels:
[1] = system: Luc-40L mesothelioma cancer cells; assay: Luc-40L mesothelioma model, survival (Example 4); assay type: in vivo, C57BL/6 mice; details: compared to saline, VIC-008 20 μg, AMD3100 1 μg/g body weight, once a week for four weeks
[2] = system: Luc-AE17 mesothelioma cancer cells; assay: Luc-AE17 mesothelioma model, survival (Example 4); assay type: in vivo, C57BL/6 mice; details: compared to saline, VIC-008 20 μg, AMD3100 1 μg/g body weight, once a week for four weeks
[3] = system: 40L mouse mesothelioma cell line; assay: 40L intraperitoneal malignant mesothelioma model: tumor weight and survival (Example 5); assay type: in vivo, C57BL/6 mice; details: compared to saline
[4] = system: AE17 mouse mesothelioma cell line; assay: AE17 intraperitoneal malignant mesothelioma model: tumor weight and survival (Example 5); assay type: in vivo, C57BL/6 mice; details: compared to saline
[5] = system: 40L mouse mesothelioma cell line; assay: Immune profiling by flow cytometry of spleens and tumors of 40L tumor-bearing mice; assay type: in vivo, C57BL/6 mice
[6] = system: AE17 mouse mesothelioma cell line; assay: Immune profiling by flow cytometry of spleens, lymph nodes and tumors of AE17 tumor-bearing mice; assay type: in vivo, C57BL/6 mice
[7] = system: 40L mouse mesothelioma cell line; assay: Ex vivo restimulation with recombinant mesothelin, intracellular IFN-γ in CD8+ T cells, 40L mice; parameters: species or system C57BL/6 mice; details: splenic CD8+ T cells, compared to saline
[8] = system: AE17 mouse mesothelioma cell line; assay: Ex vivo restimulation with recombinant mesothelin, intracellular IFN-γ in CD8+ T cells, AE17 mice; parameters: species or system C57BL/6 mice; details: compared to saline
Foxp3^+ Treg cells = details: AMD3100 5 μg/ml, 24 hours
[9] = spleens, 40L, compared to saline
[10] = tumors, 40L, compared to saline
[11] = lymph nodes, AE17, compared to saline
[12] = spleens, AE17, compared to saline
[13] = tumors, AE17, compared to saline

c1cc(CN2CCCNCCNCCCNCC2)ccc1CN1CCCNCCNCCCNCC1 [AMD3100, 1,1′-[1,4-phenylenebis(methylene)]bis[1,4,8,11-tetraazacyclotetradecane]]
survival of tumor-bearing mice [1]: slight effect on survival | survival of tumor-bearing mice [2]: slight effect on survival | animal survival [3]: only modest benefit to survival | animal survival [4]: only modest benefit to survival | proportions of Treg cells ([5]; spleens of 40L tumor-bearing mice): did not alter | proportion of CD8+ T cells in total live cells [5, 9]: did not increase | proportion of PD-1-expressing CD8+ T cells [5, 9]: significantly fewer | IL-2+ CD40L+ cells in the Foxp3+ CD25− Treg population ([5]; tumors of 40L mice): significantly more cells | ratio of CD25− cells to CD25+ cells within the Foxp3+ population ([5]; tumors of 40L mice): significantly increased | proportion of CD8+ T cells in total live cells [5, 10]: did not increase | proportion of PD-1-expressing CD8+ T cells [5, 10]: significantly fewer | proportions of Treg [5, 10]: significantly decreased | ratio of CD8+ T cells to Treg [5, 10]: increased | IL-2+ CD40L+ cells in the Foxp3+ CD25− Treg population ([6]; lymph nodes of AE17 mice): significantly more cells | cell ratio of CD8+ T cells to Treg cells [6, 11]: significantly increased | proportion of CD8+ T cells in total live cells [6, 11]: did not increase | proportion of PD-1-expressing CD8+ T cells [6, 11]: significantly fewer | ratio of CD25− cells to CD25+ cells within the Foxp3+ population ([6]; lymph nodes, AE17 model): significantly increased | Treg in the lymph nodes ([6]; lymph nodes, AE17 tumor-bearing mice): generally reduced | proportion of CD8+ T cells in total live cells [6, 12]: did not increase | proportion of PD-1-expressing CD8+ T cells [6, 12]: significantly fewer | proportion of CD8+ T cells in total live cells [6, 13]: did not increase | proportion of PD-1-expressing CD8+ T cells [6, 13]: significantly fewer | proportions of Treg [6, 13]: significantly decreased | ratio of CD8+ T cells to Treg [6, 13]: increased | mesothelin-specific IFN-γ expression in CD8+ T cells [7]: did not enhance | mesothelin-specific IFN-γ expression in CD8+ T cells ([8]; lymph node CD8+ T cells): did not enhance | mesothelin-specific IFN-γ expression in CD8+ T cells ([8]; splenic CD8+ T cells): did not enhance | ratio of the proportion of CD25− cells to CD25+ cells in the Foxp3+ CD4+ population (Foxp3^+ Treg cells; no anti-CD3/CD28 stimulation): did not change | conversion of Foxp3+ CD25− Treg into IL-2+ CD40L+ cells (Foxp3^+ Treg cells; with anti-CD3/CD28 stimulation): converted more | ratio of the proportion of CD25− cells to CD25+ cells in the Foxp3+ CD4+ population (Foxp3^+ Treg cells; with anti-CD3/CD28 stimulation): significantly increased
